# From patent publication US7598207B2, “Herbicidal composition” (Sumitomo Chemical Company, Limited, priority 2006, dated 2009)
# Experiments:
# Format in all cases: in vivo
# barnyardgrass [1] = test: Test Example 1: soil-surface granule pot test, herbicidal activity; conditions: flumioxazin 40 g/ha; granules on soil surface; 48 days after application
# Excerpt: (§1) Plastic pots each having a diameter of 18 cm and a height of 14 cm were filled with upland soil, and then seeded with wheat and barnyardgrass. On the surface of the soil of the above-mentioned plastic pots, Flumioxazin granules (granules containing 0.25% of flumioxazin, commercial name: Broad Star, produced by Valent U.S.A.), granules containing Compound [I] (prepared by using one part of Compound [I], 0.5 part of Neocol YSK, 2 parts of Toxanon GR31A, 30 parts of Kunigel VI and 66.5 parts of calcium carbonate according to Formulation example 9), and a mixture of the Flumioxazin granules with the granules containing Compound [I] were applied with hand in a designated amount given by Table 1.
# (§2) The treated plants were grown in the greenhouse. The herbicidal activity and phytotoxicity against the crop were examined 48 days after the application.
# wheat = test: Test Example 1: soil-surface granule pot test, phytotoxicity against crop; conditions: flumioxazin 40 g/ha; granules on soil surface; 48 days after application
# Excerpt: as §1, §2
# yellow nutsedge = test: Test Example 3: soil-surface spray pot test, herbicidal activity; design: key: 0: there is no or little difference in the degree of growth between treated plants and untreated plants at the time of observation; 7: show excellent herbicidal activity; 8: show excellent herbicidal activity; 9: show excellent herbicidal activity; 10: the test plants die completely or their growth is completely inhibited; conditions: 21 days after application
# Excerpt: Plastic pots each having a width of 32 cm, a depth of 22 cm and a height of 8 cm were filled with upland soil, and then planted with a tuber of yellow nutsedge. Next day, Flumioxazin WDG (water dispersible granules containing 51% of flumioxazin, commercial name: Valor SX, produced by Valent U.S.A.), emulsifiable concentrate containing Compound [I] (prepared by dissolving Compound [I] with acetone containing Tween 20 (surfactant, sorbitan monolaurate polyglycol ether)) and a mixture thereof was diluted with a designated amount of water, and applied uniformly on the surface of the soil with a small sprayer.
# The treated plants were grown in the greenhouse. The herbicidal activity and phytotoxicity against the crop were examined 21 days after the application.
# barnyardgrass [2] = test: Test Example 6: soil-surface granule pot test, herbicidal activity; conditions: flumioxazin 25 g/ha; granules on soil surface; 14 days after application
# Excerpt: (§3) Plastic pots each having a diameter of 21 cm and a height of 20 cm were filled with upland soil, and then planted with potato and seeded with barnyardgrass, crabgrass and ivyleaf morningglory. Next day, on the surface of the soil of the above-mentioned plastic pots, Flumioxazin granules (granules containing 0.25% of flumioxazin, commercial name: Broad Star, produced by Valent U.S.A.), granules containing 0.9% of Compound [I] (prepared according to Formulation example 9), and a mixture of the Flumioxazin granules with the granules containing Compound [I] were applied with hand in a designated amount given by Table 6.
# (§4) The herbicidal activity and phytotoxicity against the vegetable were examined 14 days after the application.
# crabgrass = test: as above; conditions: flumioxazin 25 g/ha; granules on soil surface; 14 days after application
# Excerpt: as §3, §4
# ivyleaf morningglory = test: as above; conditions: flumioxazin 25 g/ha; granules on soil surface; 14 days after application
# Excerpt: as §3, §4
# potato = test: Test Example 6: soil-surface granule pot test, phytotoxicity against vegetable; conditions: flumioxazin 25 g/ha; granules on soil surface; 14 days after application
# Excerpt: as §3, §4
structure (smiles),measurement,setting,value
"C#CCN1C(=O)COc2cc(F)c(N3C(=O)C4=C(CCCC4)C3=O)cc21 [flumioxazin, N-(7-fluoro-3,4-dihydro-3-oxo-4-prop-2-ynyl-2H-1,4-benzoxadin-6-yl)cyclohex-1-ene-1,2-dicarboxamide]",Herbicidal activity Barnyardgrass,barnyardgrass [1],4
same,Phytotoxicity against crop Wheat,wheat,No damage
same,Herbicidal activity Yellow nutsedge,yellow nutsedge; flumioxazin 25 g/ha,0
same,Herbicidal activity Yellow nutsedge,yellow nutsedge; flumioxazin 50 g/ha,1
same,Herbicidal activity Barnyardgrass,barnyardgrass [2],1
same,Herbicidal activity Crabgrass,crabgrass,5
same,Herbicidal activity Ivyleaf morningglory,ivyleaf morningglory,1
same,Phytotoxicity against vegetable Potato,potato,No damage
